Patent publication US20260347338A1, “PYRIMIDINE/PYRIDINE DERIVATIVES OR SALTS THEREOF AND PHARMACEUTICAL COMPOSITIONS COMPRISING THE SAME” (YUHAN CORPORATION, priority 2023, published 2026)
Structures can show the parent of a compound that is named as a salt.

The molecules below were run against T1, human recombinant HPK1 (Homo sapiens, UniProt Q92918) (assay: Inhibitory activity against human recombinant HPK1 (TR-FRET)). Settings: ULight-p70S6K peptide, ATP at Km, room temperature, 1 hour, 0.32 to 1000 nM compound.
T1 construct: purchased BPS Bioscience
Type: biochemical
Outline: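 IC50 classes A–D use 10, 50 and 100 nM cut-offs, derived from TR-FRET signal inhibition relative to DMSO controls. Human recombinant HPK1 phosphorylated ULight-p70S6K peptide at Km ATP for 1 h, room temperature, pH 7.4; test range 0.32–1000 nM final, detection with Eu-labelled antibody after EDTA quench.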

T1 sequence (Q92918 whole entry): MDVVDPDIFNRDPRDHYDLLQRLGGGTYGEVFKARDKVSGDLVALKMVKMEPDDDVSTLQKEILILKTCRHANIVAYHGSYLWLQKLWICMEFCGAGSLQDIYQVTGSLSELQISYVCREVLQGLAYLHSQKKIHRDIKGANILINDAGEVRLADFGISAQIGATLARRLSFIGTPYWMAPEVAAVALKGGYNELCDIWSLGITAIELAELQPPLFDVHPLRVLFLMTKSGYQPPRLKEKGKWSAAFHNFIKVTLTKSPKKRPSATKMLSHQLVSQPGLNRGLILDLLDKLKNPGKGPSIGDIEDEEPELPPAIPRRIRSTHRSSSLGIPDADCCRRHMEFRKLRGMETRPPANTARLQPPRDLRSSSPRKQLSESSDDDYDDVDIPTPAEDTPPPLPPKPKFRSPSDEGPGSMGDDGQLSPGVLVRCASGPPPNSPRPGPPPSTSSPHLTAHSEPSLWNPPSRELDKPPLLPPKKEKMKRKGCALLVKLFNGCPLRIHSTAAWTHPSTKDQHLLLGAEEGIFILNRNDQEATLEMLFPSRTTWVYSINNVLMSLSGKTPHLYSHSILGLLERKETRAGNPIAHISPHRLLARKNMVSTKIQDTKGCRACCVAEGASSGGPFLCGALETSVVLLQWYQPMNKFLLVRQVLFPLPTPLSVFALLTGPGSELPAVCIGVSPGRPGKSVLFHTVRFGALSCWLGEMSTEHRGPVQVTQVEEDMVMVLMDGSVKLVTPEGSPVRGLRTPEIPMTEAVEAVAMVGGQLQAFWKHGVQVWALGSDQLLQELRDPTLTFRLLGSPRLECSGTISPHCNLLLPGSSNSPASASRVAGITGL

SMILES	IC50
COc1cccc(F)c1-c1nccc(Nc2cc(N3CCC[C@H](N)C3)c(-c3ccc(N4CCCC4=O)cc3)cn2)n1 [Example 259, (S)-1-(4-(4-(3-aminopiperidin-1-yl)-6-((2-(2-fluoro-6-methoxyphenyl)pyrimidin-4-yl)amino)pyridin-3-yl)phenyl)pyrrolidin-2-one hydrochloride]	≤ 10 nM
COc1cccc(F)c1-c1nc(Nc2cc(N3CC[C@@H](F)[C@H](N)C3)c(-c3cnn(C(F)F)c3)cn2)ccc1[N+](=O)[O-] [Example 334, 4-((3R,4R)-3-amino-4-fluoropiperidin-1-yl)-5-(1-(difluoromethyl)-1H-pyrazol-4-yl)-N-(6-(2-fluoro-6-methoxyphenyl)-5-nitropyridin-2-yl)pyridin-2-amine hydrochloride]	≤ 10 nM
CCOc1cccc(F)c1-c1nccc(Nc2cc(N3CCC[C@H](O)C3)c(-c3cnn(C4CCOCC4)c3)cn2)n1 [Example 25, (S)-1-(2-((2-(2-ethoxy-6-fluorophenyl)pyrimidin-4-yl)amino)-5-(1-(tetrahydro-2H-pyran-4-yl)-1H-pyrazol-4-yl)pyridin-4-yl)piperidin-3-ol]	10 to 50 nM
COc1cccc(F)c1-c1nccc(Nc2cc(N3CCC(CO)(CC(F)F)CC3)c(-c3cnn(C4CCOCC4)c3)cn2)n1 [Example 47, (4-(2,2-difluoroethyl)-1-(2-((2-(2-fluoro-6-methoxyphenyl)pyrimidin-4-yl)amino)-5-(1-(tetrahydro-2H-pyran-4-yl)-1H-pyrazol-4-yl)pyridin-4-yl)piperidin-4-yl)methanol]	≤ 10 nM
COc1cccc(F)c1-c1nccc(Nc2cc(N3CCC[C@H](O)C3)c(-c3cnn(C4CCOCC4)c3)cn2)n1 [Example 7, (S)-1-(2-((2-(2-fluoro-6-methoxyphenyl)pyrimidin-4-yl)amino)-5-(1-(tetrahydro-2H-pyran-4-yl)-1H-pyrazol-4-yl)pyridin-4-yl)piperidin-3-ol]	≤ 10 nM
OCc1csc(-c2nccc(Nc3cc(N4CCC[C@H](O)C4)c(-c4cnn(C5CCOCC5)c4)cn3)n2)c1 [Example 21, (S)-1-(2-((2-(4-(hydroxymethyl)thiophen-2-yl)pyrimidin-4-yl)amino)-5-(1-(tetrahydro-2H-pyran-4-yl)-1H-pyrazol-4-yl)pyridin-4-yl)piperidin-3-ol]	10 to 50 nM
N[C@H]1CCCN(c2cc(Nc3ccnc(-c4cc5nccnc5cc4F)n3)ncc2-c2ccc(C3CCOCC3)nc2)C1 [Example 99, (S)-4-(3-aminopiperidin-1-yl)-N-(2-(7-fluoroquinoxalin-6-yl)pyrimidin-4-yl)-6′-(tetrahydro-2H-pyran-4-yl)-[3,3′-bipyridin]-6-amine hydrochloride]	10 to 50 nM
OC1CN(Cc2csc(-c3nccc(Nc4cc(N5CCC[C@H](O)C5)c(-c5cnn(C6CCOCC6)c5)cn4)n3)c2)C1 [Example 188, (S)-1-(2-((2-(4-((3-hydroxyazetidin-1-yl)methyl)thiophen-2-yl)pyrimidin-4-yl)amino)-5-(1-(tetrahydro-2H-pyran-4-yl)-1H-pyrazol-4-yl)pyridin-4-yl)piperidin-3-ol]	10 to 50 nM
N[C@H]1CCCN(c2cc(Nc3ccnc(-c4cc5nccnc5cc4F)n3)ncc2C#Cc2cnn(C(F)(F)F)c2)C1 [Example 115, (S)-N-(4-(3-aminopiperidin-1-yl)-5-((1-(trifluoromethyl)-1H-pyrazol-4-yl)ethynyl)pyridin-2-yl)-2-(7-fluoroquinoxalin-6-yl)pyrimidin-4-amine hydrochloride]	≤ 10 nM
COc1cccc(F)c1-c1nc(Nc2cc(N3CCC[C@H](N)C3)c(-c3cnn(C(F)(F)F)c3)cn2)ccc1N [Example 173, N^2-(4-((S)-3-aminopiperidin-1-yl)-5-(1-(trifluoromethyl)-1H-pyrazol-4-yl)pyridin-2-yl)-6-(2-fluoro-6-methoxyphenyl)pyridin-2,5-diamine hydrochloride]	≤ 10 nM
COc1cccc(F)c1-c1nccc(Nc2cc(N3CCC[C@H](O)C3)c(-c3cnn(CC(F)(F)F)c3)cn2)n1 [Example 16, (S)-1-(2-((2-(2-fluoro-6-methoxyphenyl)pyrimidin-4-yl)amino)-5-(1-(2,2,2-trifluoroethyl)-1H-pyrazol-4-yl)pyridin-4-yl)piperidin-3-ol]	≤ 10 nM
COc1cccc(F)c1-c1nc(Nc2cc(N3CCC[C@H](O)C3)c(C(=O)NC3CC(O)C3)cn2)ccc1[N+](=O)[O-] (stereo partly drawn) [Example 196, 6-((6-(2-fluoro-6-methoxyphenyl)-5-nitropyridin-2-yl)amino)-N-(3-hydroxycyclobutyl)-4-((S)-3-hydroxypiperidin-1-yl)nicotinamide]	≤ 10 nM
COc1cc(C=O)cc(F)c1-c1nccc(Nc2cc(N3CCC[C@H](O)C3)c(-c3cnn(C4CCOCC4)c3)cn2)n1 [Example 189, (S)-3-fluoro-4-(4-((4-(3-hydroxypiperidin-1-yl)-5-(1-(tetrahydro-2H-pyran-4-yl)-1H-pyrazol-4-yl)pyridin-2-yl)amino)pyrimidin-2-yl)-5-methoxybenzaldehyde]	≤ 10 nM
COc1cccc(F)c1-c1nccc(Nc2cc(N3CCC[C@H](N)C3)c(-c3ccc(N(C)C)nc3)cn2)n1 [Example 118, (S)-4-(3-aminopiperidin-1-yl)-N^6-(2-(2-fluoro-6-methoxyphenyl)pyrimidin-4-yl)-N^6′,N^6′-dimethyl-[3,3′-bipyridin]-6,6′-diamine hydrochloride]	≤ 10 nM
COc1cccc(F)c1-c1nccc(Nc2cc(N3CCC[C@@H](O)C3)c(C#Cc3cnn(C(F)(F)F)c3)cn2)n1 [Example 9, (R)-1-(2-((2-(2-fluoro-6-methoxyphenyl)pyrimidin-4-yl)amino)-5-((1-(trifluoromethyl)-1H-pyrazol-4-yl)ethynyl)pyridin-4-yl)piperidin-3-ol]	10 to 50 nM
COc1cccc(F)c1-c1nccc(Nc2cc(N3CCC[C@H](N)C3)c(-c3ccc4c(c3)OCCN4C)cn2)n1 [Example 257, (S)-N-(4-(3-aminopiperidin-1-yl)-5-(4-methyl-3,4-dihydro-2H-benzo[b][1,4]oxazin-7-yl)pyridin-2-yl)-2-(2-fluoro-6-methoxyphenyl)pyrimidin-4-amine hydrochloride]	≤ 10 nM
COc1cc(C(=O)N2CCC(F)(F)C2)cc(F)c1-c1nccc(Nc2cc(N3CCC[C@H](O)C3)c(-c3cnn(C(F)F)c3)cn2)n1 [Example 234, (S)-(4-(4-((5-(1-(difluoromethyl)-1H-pyrazol-4-yl)-4-(3-hydroxypiperidin-1-yl)pyridin-2-yl)amino)pyrimidin-2-yl)-3-fluoro-5-methoxyphenyl)(3,3-difluoropyrrolidin-1-yl)methanone]	≤ 10 nM

Continued, values first:

IC50	SMILES
10 to 50 nM	CN[C@@H]1CCCN(c2cc(Nc3ccnc(-c4c(F)cccc4OC)n3)ncc2-c2cnn(C(F)F)c2)C1 [Example 123, (R)-N-(5-(1-(difluoromethyl)-1H-pyrazol-4-yl)-4-(3-(methylamino)piperidin-1-yl)pyridin-2-yl)-2-(2-fluoro-6-methoxyphenyl)pyrimidin-4-amine hydrochloride]
≤ 10 nM	COc1cccc(F)c1-c1nccc(Nc2cc(N3CC[C@@H](OC)[C@H](N)C3)c(-c3cnn(C(F)F)c3)cn2)n1 [Example 254, N-(4-((3R,4R)-3-amino-4-methoxypiperidin-1-yl)-5-(1-(difluoromethyl)-1H-pyrazol-4-yl)pyridin-2-yl)-2-(2-fluoro-6-methoxyphenyl)pyrimidin-4-amine]
≤ 10 nM	COc1cc(F)cc(F)c1-c1nccc(Nc2cc(N3C[C@@H](N)C[C@H](F)C3)c(-c3cnn(C(C)C)c3)cn2)n1 [Example 336, N-(4-((3S,5S)-3-amino-5-fluoropiperidin-1-yl)-5-(1-isopropyl-1H-pyrazol-4-yl)pyridin-2-yl)-2-(2,4-difluoro-6-methoxyphenyl)pyrimidin-4-amine]
≤ 10 nM	CNC(=O)c1cc(F)c(-c2nccc(Nc3cc(N4CCC[C@H](N)C4)c(-c4cnn(C(F)F)c4)cn3)n2)c(OC)c1 [Example 186, (S)-4-(4-((4-(3-aminopiperidin-1-yl)-5-(1-(difluoromethyl)-1H-pyrazol-4-yl)pyridin-2-yl)amino)pyrimidin-2-yl)-3-fluoro-5-methoxy-N-methylbenzamide hydrochloride]
≤ 10 nM	COCCn1cc(-c2cnc(Nc3ccnc(-c4c(F)cccc4OC)n3)cc2N2CCC[C@H](N)C2)cn1 [Example 91, (S)-N-(4-(3-aminopiperidin-1-yl)-5-(1-(2-methoxyethyl)-1H-pyrazol-4-yl)pyridin-2-yl)-2-(2-fluoro-6-methoxyphenyl)pyrimidin-4-amine hydrochloride]
≤ 10 nM	COc1cccc(F)c1-c1nccc(Nc2cc(N3CCC[C@H](C)C3)c(-c3cnn(C(F)F)c3)cn2)n1 [Example 271, (S)-N-(5-(1-(difluoromethyl)-1H-pyrazol-4-yl)-4-(3-methylpiperidin-1-yl)pyridin-2-yl)-2-(2-fluoro-6-methoxyphenyl)pyrimidin-4-amine]
≤ 10 nM	COc1cc(F)cc(F)c1-c1nccc(Nc2cc(N3C[C@@H](N)C[C@@H](F)C3)c(-c3cnn(C(C)C)c3)cn2)n1 [Example 335, N-(4-((3S,5R)-3-amino-5-fluoropiperidin-1-yl)-5-(1-isopropyl-1H-pyrazol-4-yl)pyridin-2-yl)-2-(2,4-difluoro-6-methoxyphenyl)pyrimidin-4-amine]
≤ 10 nM	COc1cccc(F)c1-c1nc(Nc2cc(N3CCC[C@H](N)C3)c(-c3cnn(C(C)C)c3)cn2)ccc1C#N [Example 328, 6-((4-((S)-3-aminopiperidin-1-yl)-5-(1-isopropyl-1H-pyrazol-4-yl)pyridin-2-yl)amino)-2-(2-fluoro-6-methoxyphenyl)nicotinonitrile hydrochloride]
≤ 10 nM	COc1cc(F)cc(F)c1-c1nc(Nc2cc(N3CCC[C@H](N)C3)c(-c3cnn(CC(F)(F)F)c3)cn2)ccc1C#N [Example 320, 6-((4-((S)-3-aminopiperidin-1-yl)-5-(1-(2,2,2-trifluoroethyl)-1H-pyrazol-4-yl)pyridin-2-yl)amino)-2-(2,4-difluoro-6-methoxyphenyl)nicotinonitrile hydrochloride]
